Experimental data from US9018258B2, “Substituted 1-benzylcycloalkylcarboxylic acids and the use thereof” (Bayer Intellectual Property GmbH, priority 2010, dated 2015).

Biological target: T1, Haem-containing sGC (Rattus norvegicus, UniProt P20595)
T1 construct: made in house; host or cells: Sf9 insect cells (baculovirus)
Assay: Stimulation of recombinant soluble guanylate cyclase (sGC) in vitro, haem-containing enzyme
Type: biochemical
From the text: Hoenicka, E. M. Becker, H. Apeler, T. Sirichoke, H. Schroeder, R. Gerzer and J.-P. Stasch, “Purified soluble guanylyl cyclase expressed in a baculovirus/Sf9 system: Stimulation by YC-1, nitric oxide, and carbon oxide”, J. Mol. Med. 77 (1999), 14-23. The haem-free guanylate cyclase is obtained by adding Tween 20 to the sample buffer (0.5% in the final concentration).
The activation of sGC by a test substance is reported as x-fold stimulation of the basal activity.

T1 sequence (P19686 whole entry partner): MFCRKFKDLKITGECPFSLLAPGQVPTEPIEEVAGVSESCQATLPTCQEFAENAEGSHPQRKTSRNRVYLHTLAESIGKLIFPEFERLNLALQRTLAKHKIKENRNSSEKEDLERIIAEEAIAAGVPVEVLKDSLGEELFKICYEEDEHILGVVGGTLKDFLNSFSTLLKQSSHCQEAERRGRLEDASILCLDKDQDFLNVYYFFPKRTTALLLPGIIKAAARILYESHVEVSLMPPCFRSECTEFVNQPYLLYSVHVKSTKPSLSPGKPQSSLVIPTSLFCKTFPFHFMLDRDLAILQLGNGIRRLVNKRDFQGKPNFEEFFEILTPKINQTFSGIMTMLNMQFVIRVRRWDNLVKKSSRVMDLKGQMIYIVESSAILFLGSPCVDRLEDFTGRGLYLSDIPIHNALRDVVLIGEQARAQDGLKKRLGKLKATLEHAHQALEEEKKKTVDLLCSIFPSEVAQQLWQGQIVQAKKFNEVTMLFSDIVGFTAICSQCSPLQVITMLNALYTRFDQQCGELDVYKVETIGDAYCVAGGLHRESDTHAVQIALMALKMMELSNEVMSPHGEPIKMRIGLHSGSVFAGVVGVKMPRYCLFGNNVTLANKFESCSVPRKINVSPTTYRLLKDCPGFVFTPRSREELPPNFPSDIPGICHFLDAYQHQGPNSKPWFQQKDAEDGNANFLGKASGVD
T1 sequence (P20595 whole entry): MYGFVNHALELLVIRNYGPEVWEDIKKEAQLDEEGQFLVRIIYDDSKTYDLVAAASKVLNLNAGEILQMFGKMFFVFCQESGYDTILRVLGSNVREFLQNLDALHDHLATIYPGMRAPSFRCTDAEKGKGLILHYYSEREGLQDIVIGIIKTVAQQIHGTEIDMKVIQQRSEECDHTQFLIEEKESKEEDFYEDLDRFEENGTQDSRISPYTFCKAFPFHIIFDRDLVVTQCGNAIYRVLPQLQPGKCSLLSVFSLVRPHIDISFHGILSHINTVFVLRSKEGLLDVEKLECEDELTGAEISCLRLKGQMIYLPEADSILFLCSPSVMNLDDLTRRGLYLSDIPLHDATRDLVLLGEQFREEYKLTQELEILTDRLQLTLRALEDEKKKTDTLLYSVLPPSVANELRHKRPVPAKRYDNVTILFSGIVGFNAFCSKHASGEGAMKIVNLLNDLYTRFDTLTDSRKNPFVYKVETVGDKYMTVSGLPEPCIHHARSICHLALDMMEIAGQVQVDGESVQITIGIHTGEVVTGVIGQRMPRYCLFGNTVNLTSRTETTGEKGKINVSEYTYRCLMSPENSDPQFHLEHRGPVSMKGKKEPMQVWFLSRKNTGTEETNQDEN

Stimulation (x-fold) of recombinant sGC, +0.01 μM DEA/NO (test substance 0.01 μM)	Stimulation (x-fold) of recombinant sGC, +0.01 μM DEA/NO (test substance 0.1 μM)	Stimulation (x-fold) of recombinant sGC, +0.01 μM DEA/NO (test substance 1.0 μM)	Stimulation (x-fold) of recombinant sGC, +0.01 μM DEA/NO (test substance 10 μM)	Stimulation (x-fold) of recombinant sGC, +10 μM ODQ (test substance 0.01 μM)	Stimulation (x-fold) of recombinant sGC, +10 μM ODQ (test substance 0.1 μM)	Stimulation (x-fold) of recombinant sGC, +10 μM ODQ (test substance 1.0 μM)	Stimulation (x-fold) of recombinant sGC, +10 μM ODQ (test substance 10 μM)	Effect of combination with DEA/NO (NO donor) on sGC stimulation	Stimulation (x-fold) of recombinant sGC, Basal (test substance 0.01 μM)	Stimulation (x-fold) of recombinant sGC, Basal (test substance 0.1 μM)	Stimulation (x-fold) of recombinant sGC, Basal (test substance 1.0 μM)	Stimulation (x-fold) of recombinant sGC, Basal (test substance 10 μM)	Stimulation (x-fold) of recombinant sGC, +0.01 μM DEA/NO (test substance 100 μM)	Stimulation (x-fold) of recombinant sGC, +10 μM ODQ (test substance 100 μM)	Stimulation (x-fold) of recombinant sGC, Basal (test substance 100 μM)	Compound
4.0 ± 0.6 x-fold	4.4 ± 0.8 x-fold	5.0 ± 1.7 x-fold	5.3 ± 1.8 x-fold	4.3 ± 0.4 x-fold	5.7 ± 0.3 x-fold	9.2 ± 0.9 x-fold	10.3 ± 1.3 x-fold	no synergistic effect	1.0 ± 0.0 x-fold	1.5 ± 0.2 x-fold	1.8 ± 0.3 x-fold	2.6 ± 0.4 x-fold	–	–	–	[2H]C([2H])([2H])OC(c1ccc(Cl)c(NC(=O)[C@H](c2ccc(Cl)cc2)[C@@H](C)C(F)(F)F)c1)C1(C(=O)O)CC1 (single isomer, unassigned; (+)) [Example 99]
7.5 ± 1.8 x-fold	7.6 ± 1.8 x-fold	9.0 ± 2.0 x-fold	13.3 ± 2.2 x-fold	9.2 ± 1.4 x-fold	9.6 ± 1.5 x-fold	12.7 ± 1.5 x-fold	21.5 ± 2.2 x-fold	no synergistic effect	1.4 ± 0.1 x-fold	1.2 ± 0.1 x-fold	2.6 ± 0.4 x-fold	6.4 ± 0.6 x-fold	14.6 ± 2.2 x-fold	22.6 ± 2.6 x-fold	9.5 ± 0.9 x-fold	C[C@H]([C@H](C(=O)Nc1cc(CC2(C(=O)O)CC2)ccc1Cl)c1ccc(Cl)cc1)C(F)(F)F [Example 50, (+)-1-(4-Chloro-3-{[(2S,3R)-2-(4-chlorophenyl)-4,4,4-trifluoro-3-methylbutanoyl]amino}benzyl)-cyclopropanecarboxylic acid]
